± gives the expanded uncertainty stated by the source.
Test: cn = amount concentration of the nth substance listed, in mol/dm3
Settings: 101 kPa, Liquid, Dip Cell

O=C([O-])c1ccccc1.[Na+] [sodium benzoate] + O
electrical conductivity [S/m]
Settings | 298 K | 303 K | 308 K | 313 K
c1 = 1.98e-05 | 1.95e-05 ± 6.8e-07 | 1.613e-05 ± 9e-08 | 1.97e-05 ± 6.1e-07 | 2.22e-05 ± 5.1e-07
c1 = 3.92e-05 | 3.33e-05 ± 3.8e-07 | 3.53e-05 ± 3.8e-07 | 3.66e-05 ± 7.1e-07 | 4.21e-05 ± 1e-06
c1 = 5.82e-05 | 4.76e-05 ± 9.4e-07 | 5.11e-05 ± 7.7e-07 | 5.48e-05 ± 9.2e-07 | 5.98e-05 ± 1.1e-06
c1 = 7.69e-05 | 5.86e-05 ± 1.2e-06 | 6.55e-05 ± 9.7e-07 | 6.76e-05 ± 1.3e-06 | 7.77e-05 ± 1.9e-06
c1 = 9.52e-05 | 7.22e-05 ± 1.8e-06 | 7.97e-05 ± 1.6e-06 | 8.72e-05 ± 1.4e-06 | 9.3e-05 ± 1.3e-06
c1 = 0.0001221 | 8.72e-05 ± 2.2e-06 | 9.91e-05 ± 2.1e-06 | 0.000107 ± 1.8e-06 | 0.000116 ± 1.7e-06
c1 = 0.0001567 | 0.00011 ± 2.5e-06 | 0.000121 ± 2.4e-06 | 0.000133 ± 2.3e-06 | 0.000143 ± 2.1e-06
c1 = 0.00019 | 0.0001285 ± 7.8e-07 | 0.00013 ± 2.9e-06 | 0.000157 ± 3.8e-06 | 0.000167 ± 2.2e-06
c1 = 0.0002222 | 0.000145 ± 3.4e-06 | 0.000161 ± 3.4e-06 | 0.000178 ± 3e-06 | 0.00019 ± 2.1e-06
c1 = 0.0002533 | 0.000161 ± 2.9e-06 | 0.000175 ± 3.8e-06 | 0.000197 ± 3.1e-06 | 0.0002038 ± 1.7e-06
c1 = 0.0002906 | 0.00018 ± 3.9e-06 | 0.000199 ± 2.8e-06 | 0.000206 ± 2.4e-06 | 0.000221 ± 3.6e-06
c1 = 0.0003264 | 0.000198 ± 2.3e-06 | 0.000203 ± 2.8e-06 | 0.000224 ± 4.2e-06 | 0.000243 ± 3.8e-06
c1 = 0.0003607 | 0.000199 ± 2.8e-06 | 0.000217 ± 4.6e-06 | 0.000243 ± 4.7e-06 | 0.000262 ± 4.2e-06
c1 = 0.0004 | 0.000216 ± 4e-06 | 0.000235 ± 4.7e-06 | 0.000261 ± 5.3e-06 | 0.000285 ± 5e-06
c1 = 0.0004375 | 0.000231 ± 4.9e-06 | 0.000254 ± 5.4e-06 | 0.000284 ± 5.5e-06 | 0.000307 ± 4.9e-06
c1 = 0.0004791 | 0.000245 ± 5e-06 | 0.000271 ± 6.1e-06 | 0.000304 ± 6.2e-06 | 0.000332 ± 5.5e-06
c1 = 0.000524 | 0.000266 ± 4.7e-06 | 0.000291 ± 6.2e-06 | 0.000326 ± 6.6e-06 | 0.000354 ± 5.9e-06
c1 = 0.0005663 | 0.000293 ± 4.6e-06 | 0.000307 ± 4.8e-06 | 0.000338 ± 7e-06 | 0.000375 ± 7.3e-06
c1 = 0.0006063 | 0.000297 ± 4.9e-06 | 0.000324 ± 6.7e-06 | 0.000362 ± 6.9e-06 | 0.00039 ± 6.2e-06
c1 = 0.0006532 | 0.000314 ± 6.2e-06 | 0.000341 ± 7e-06 | 0.000381 ± 7.3e-06 | 0.000412 ± 6.6e-06
c1 = 0.0007055 | 0.000326 ± 6.3e-06 | 0.00036 ± 7e-06 | 0.000393 ± 8.2e-06 | 0.000439 ± 9.2e-06
c1 = 0.0007616 | 0.000349 ± 6.6e-06 | 0.000379 ± 8.1e-06 | 0.000428 ± 8.6e-06 | 0.000462 ± 7.5e-06
c1 = 0.0008131 | 0.000366 ± 6.8e-06 | 0.000398 ± 8.3e-06 | 0.000446 ± 9.2e-06 | 0.000486 ± 8.2e-06
c1 = 0.0008669 | 0.000381 ± 6.8e-06 | 0.000414 ± 8.5e-06 | 0.000463 ± 9.6e-06 | 0.000507 ± 9e-06
c1 = 0.0009218 | 0.000398 ± 7.2e-06 | 0.000432 ± 8.8e-06 | 0.000483 ± 9.8e-06 | 0.000526 ± 9.2e-06
c1 = 0.000977 | 0.000412 ± 6.2e-06 | 0.000443 ± 8.5e-06 | 0.000493 ± 1.1e-05 | 0.000547 ± 1.1e-05
c1 = 0.001027 | 0.000431 ± 5.6e-06 | 0.000456 ± 8.7e-06 | 0.000514 ± 1.1e-05 | 0.000563 ± 1e-05

CCCCCCCCCCCCCCCC[N+](C)(C)CCCCCC[N+](C)(C)CCCCCCCCCCCCCCCC.[Br-].[Br-] + O
electrical conductivity [S/m]
Settings | 298 K | 303 K | 308 K | 313 K
c1 = 3.3e-06 | 7.1e-08 ± 1e-09 | 7.2e-08 ± 1e-09 | 7.3e-08 ± 1e-09 | 7.5e-08 ± 1e-09
c1 = 6.6e-06 | 1.31e-07 ± 4e-09 | 1.53e-07 ± 1e-09 | 1.22e-07 ± 2e-09 | 1.33e-07 ± 2e-09
c1 = 9.9e-06 | 2.04e-07 ± 3e-09 | 2.14e-07 ± 1e-09 | 2.09e-07 ± 3e-09 | 1.92e-07 ± 4e-09
c1 = 1.32e-05 | 2.59e-07 ± 2e-09 | 2.69e-07 ± 3e-09 | 2.84e-07 ± 3e-09 | 2.42e-07 ± 6e-09
c1 = 1.64e-05 | 3.27e-07 ± 4e-09 | 3.46e-07 ± 4e-09 | 3.66e-07 ± 3e-09 | 3.21e-07 ± 1e-08
c1 = 1.96e-05 | 3.99e-07 ± 2e-09 | 4.09e-07 ± 3e-09 | 4.21e-07 ± 3e-09 | 3.95e-07 ± 6e-09
c1 = 2.28e-05 | 4.86e-07 ± 8e-09 | 5.06e-07 ± 4e-09 | 5.18e-07 ± 5e-09 | 4.69e-07 ± 1e-08
c1 = 2.6e-05 | 5.26e-07 ± 3e-09 | 5.46e-07 ± 5e-09 | 5.67e-07 ± 3e-09 | 5.41e-07 ± 5e-09
c1 = 2.91e-05 | 6.16e-07 ± 6e-09 | 6.36e-07 ± 5e-09 | 6.57e-07 ± 4e-09 | 6.23e-07 ± 9e-09
c1 = 3.23e-05 | 6.92e-07 ± 4e-09 | 7.02e-07 ± 5e-09 | 7.22e-07 ± 4e-09 | 6.81e-07 ± 7e-09
c1 = 3.54e-05 | 7.86e-07 ± 8e-09 | 8.06e-07 ± 6e-09 | 8.22e-07 ± 6e-09 | 7.7e-07 ± 1.3e-08
c1 = 3.85e-05 | 8.34e-07 ± 5e-09 | 8.54e-07 ± 7e-09 | 8.91e-07 ± 5e-09 | 8.38e-07 ± 1.2e-08
c1 = 4.15e-05 | 9.29e-07 ± 1e-08 | 9.49e-07 ± 6e-09 | 9.65e-07 ± 7e-09 | 9.01e-07 ± 1.4e-08
c1 = 4.46e-05 | 9.65e-07 ± 7e-09 | 9.95e-07 ± 9e-09 | 1.042e-06 ± 6e-09 | 9.69e-07 ± 1.5e-08
c1 = 4.76e-05 | 1.031e-06 ± 6e-09 | 1.031e-06 ± 7e-09 | 1.071e-06 ± 6e-09 | 1.041e-06 ± 8e-09
c1 = 5.06e-05 | 1.084e-06 ± 6e-09 | 1.084e-06 ± 7e-09 | 1.113e-06 ± 7e-09 | 1.113e-06 ± 6e-09
c1 = 5.36e-05 | 1.145e-06 ± 6e-09 | 1.145e-06 ± 7e-09 | 1.17e-06 ± 7e-09 | 1.18e-06 ± 7e-09
c1 = 5.66e-05 | 1.186e-06 ± 8e-09 | 1.206e-06 ± 8e-09 | 1.226e-06 ± 8e-09 | 1.246e-06 ± 7e-09
c1 = 5.96e-05 | 1.209e-06 ± 8e-09 | 1.249e-06 ± 9e-09 | 1.269e-06 ± 9e-09 | 1.299e-06 ± 9e-09
c1 = 6.25e-05 | 1.272e-06 ± 8e-09 | 1.292e-06 ± 8e-09 | 1.312e-06 ± 9e-09 | 1.352e-06 ± 1e-08
c1 = 6.54e-05 | 1.326e-06 ± 1e-08 | 1.356e-06 ± 9e-09 | 1.376e-06 ± 8e-09 | 1.396e-06 ± 9e-09
c1 = 6.83e-05 | 1.359e-06 ± 8e-09 | 1.379e-06 ± 8e-09 | 1.399e-06 ± 1e-08 | 1.447e-06 ± 1.2e-08
c1 = 7.12e-05 | 1.396e-06 ± 8e-09 | 1.416e-06 ± 1e-08 | 1.456e-06 ± 1.1e-08 | 1.486e-06 ± 1.1e-08
c1 = 7.41e-05 | 1.437e-06 ± 9e-09 | 1.457e-06 ± 9e-09 | 1.477e-06 ± 1.2e-08 | 1.541e-06 ± 1.5e-08
c1 = 7.69e-05 | 1.462e-06 ± 9e-09 | 1.482e-06 ± 9e-09 | 1.512e-06 ± 1.3e-08 | 1.59e-06 ± 1.8e-08

Reference: the NIST ThermoML archive (doi:10.1021/je100256w)
